Experimental data published in patent US20160083397A1, “PARTHENOLIDE DERIVATIVES AND THEIR MODULATION OF PROCESSES CONTROLLED BY REGULATED TRANSLATION” (THE BOARD OF TRUSTEES OF THE UNIVERSITY OF ARKANSAS, priority 2013, published 2016).

Legend:
Xenopus oocytes = assay: Xenopus oocyte maturation assay; type: cell-based; conditions: for Xenopus Oocyte Maturation Assay, With Progesterone: test compound 100 μM, progesterone 2 μg/mL, inhibitor = slowed rate of progesterone-dependent GVBD by 20% or more
Description: An in vivo Xenopus oocyte maturation assay was used to screen the compounds for their ability to modulate the activity of cell cycle control proteins, mRNA translational control proteins, and/or proteins involved in signaling pathways. In this assay, oocyte maturation (or cell cycle progression) is monitored phenotypically using an image capture system. Oocyte maturation is correlated with the appearance of a white spot at the animal pole of the darkly pigmented animal hemisphere of the oocyte. The white spot appears because the germinal vesicle (i.e., the large nucleus of the oocyte) migrates to the animal pole prior to meiotic germinal vesicle breakdown (GVBD).
Immature stage VI Xenopus oocytes were transferred to wells of a flat bottom 96-well plate containing about 178 μL of L15 culture media. The oocytes were transferred using wide mouth 200 μL pipette tips with minimal transfer of culture medium (e.g., about 20 μL). Generally, the oocytes oriented with the pigmented animal hemisphere facing up due to the higher density of the yolk-containing vegetal hemisphere. Incorrectly orientated oocytes were gently manipulated using a drawn-out capillary tube to rotate them into the correct orientation.
Forty-four test compounds were dissolved in DMSO to make 100× stock solutions. The test compounds were added to the appropriate wells at a final concentration of 100 μM (and 1% DMSO). Control oocytes were exposed to 1% DMSO only (generally the first and last wells of a plate contained the untreated, control oocytes). Sixteen hours later, progesterone was added to each well to stimulate progesterone-dependent oocyte maturation. For this, 2 μL of 1000× stock solution (2 mg/mL in ethanol) was added to the appropriate wells to yield a final concentration of 2 μg/mL. The rate of maturation in the control oocytes (i.e., those in the first and last wells) served as an intra-assay control for time taken for progesterone addition across the multi-well plate.
The 96-well plate was imaged from above (i.e., top-down) using a 36-megapixel Nikon D800 SLR camera with an AF Micro Nikkor 60 mm, f/2.8 lens, mounted on a dedicated copy stand (with adjustable flanking light sources). The plate was imaged prior to and after addition of progesterone (i.e., images were taken at regular intervals over a period of 7 hours). The high resolution images were digitally zoomed after capture to analyze the maturation status of oocytes in individual wells of the plate. Test compounds that slowed the rate of progesterone-dependent GVBD by 20% or more were classified as inhibitors (assessed relative to the time 50% of the population of control, vehicle treated oocytes had undergone GVBD (GVBD50)).
To determine whether the test compounds were able to activate oocyte maturation in a progesterone-independent manner, oocytes were incubated in the presence of the test compound (dissolved in DMSO) or DMSO only. The oocytes were imaged at regular intervals for the evidence of GVBD, or subsets of oocytes were removed at predetermined times and the activation status of key cell cycle control proteins (e.g., pMAP kinase, pCcd2, etc.) was analyzed by Western blotting. For example, activation of pMAP kinase is associated with increased phosphorylation whereas activation of pCdc2 is associated with decreased phosphorylation. Compounds were classified as an activator if they were able to induce GVBD in the absence of added progesterone. Further, compounds were classified as accelerators if they accelerated the rate of progesterone-stimulated GVBD, but were unable to induce GVBD in the absence of progesterone. The criteria for test compounds to be considered accelerators is that they must increase the rate of progesterone-dependent GVBD by 20% or more at one dose (assessed relative to the time 50% of the population of control, vehicle treated oocytes had undergone GVBD (GVBD50)).

MCF-7 cells = assay: Mammosphere formation, MCF-7; type: cell-based; conditions: compound present first 3 days, scored day 14 (P2), 50, 5 and 0.5 μM
Description: Mammosphere culture growth presents a useful indicator of the presence of breast cancer cells with stem cell-like properties. Breast cancer cell lines grown as mammospheres (under non-adherent plating conditions) recapitulate the three-dimensional organization of tumors. Importantly, assessment of stem cell self-renewal capacity can be achieved through dispersion of mammospheres to single cells and subsequent limited dilution replating. To determine whether PNR-5-46, PNR-5-41, or JVM-20 inhibited mammosphere formation in this system, […], and then cultured in the absence of the test compound. At day 7, mammospheres were collected, dispersed to single cells and replated at limiting dilution (P1). Spheroids were scored at day 14 (P2). Mammosphere forming units (MFUs) are defined as spheroid bodies >100 μm (MCF-7 cells) or >65 μm (MDA MB231 cells) diameter after 7 (P1) or 14 (P2) days growth in non-adherent culture.

[1] = test system: neuroblastoma cell line SHSY5Y; assay: Neurosphere formation, SHSY5Y; type: cell-based; conditions: lowest dose tested 0.5 μM
Description: (§1) The activity of the three test compounds to inhibit neurosphere formation was also tested in a neuroblastoma cell line SHSY5Y and a glioblastomoa cell line U87. All three compounds attenuated neurosphere formation in both cell lines, to varying degrees of efficacy (FIG. 2A,B). […] None of the compounds affected cell viability.

[2] = test system: glioblastomoa cell line U87; assay: Neurosphere formation, U87; type: cell-based; conditions: lowest dose tested 0.5 μM
Description: as §1

Q: Which melting point does the source give for C[C@@]12CCC=C(CO)C3C[C@H]4/C(=C\c5ccccc5)C(=O)O[C@@H]4[C@@]31O2 (stereo partly shown) here?
A: 115 to 117 °C

Q: Which “Xenopus Oocyte Maturation Assay, With Progesterone” value (Xenopus oocytes) does the source give for “13-(4-aminophenyl)parthenolide [PNR-5-41]” here?
A: Inhibitor

Q: And the “mammosphere formation relative to DMSO-treated control cells” value (MCF-7 cells)?
A: did not

Q: And the “neurosphere formation / stem cell self-renewal” value [1]?
A: Significant inhibition

Q: What about the “neurosphere formation / stem cell self-renewal” value [2] of the same molecule?
A: Significant inhibition

Q: For C/C1=C\CC[C@@]2(C)O[C@H]2[C@H]2OC(=O)[C@@H](CNc3nc4ccccc4[nH]3)[C@@H]2CC1 [JVM-9, 13-(2-aminobenzimidazole)parthenolide], which “Xenopus Oocyte Maturation Assay, Without Progesterone” value (Xenopus oocytes; no progesterone, activator = able to induce GVBD in the absence of added progesterone) is on record?
A: Activator

Q: Which “Xenopus Oocyte Maturation Assay, With Progesterone” value (Xenopus oocytes) does the source give for CC1=CCCC2(C)OC2C2OC(=O)C(CNCCN3CCOCC3)C2CC1 (stereo not shown) [JVM-11, 13-(aminoethylmorpholino)parthenolide] here?
A: Inhibitor
